Assay results reported in patent US12187662B2, “FOXM1 inhibitor compositions and methods of using the same” (The Board of Trustees of the University of Illinois, priority 2018, dated 2025).
Like-named read-outs stand apart in the source and are kept apart here. One block for each molecule: values may come before it.

Assays:
[1] = tested on: MCF7 cells; assay: Cell proliferation assay (WST-1), MCF7; format: cell-based, human
Protocol: (§1) All cells were tested for mycoplasma using Real-Time PCR Mycoplasma Detection Kit (Akron Biotech, Boca Raton, FL).
(§2) All assays were performed in triplicate.

[2] = tested on: MDA-MB-231 cells; assay: Cell proliferation assay (WST-1), MDA-MB-231; format: cell-based, human
Protocol: as §1, §2

[3] = Pharmacokinetic studies in mice after single s.c. or oral dose; details: for half-life / AUC(0-t): female, CD-1, mouse, plasma
Protocol: For s.c. injection, each compound was dissolved in DMSO and then mixed with corn oil for a total injection volume of 100 μL (10% DSMO+90% corn oil) per mouse. For oral gavage, compounds were administered in a 200 μL formulation of 9/0.5/0.5/90 parts of PEG400/Tween80/Povidone/0.5% Carboxymethylcellulose. […] Compounds were quantified by LC-MS/MS at the University of Illinois Metabolomics Core Facility. The data were fitted to a non-compartment model.

[4] = tested on: DT22 cells; assay: Cell proliferation assay (WST-1), DT22; format: cell-based, human
Protocol: as §1, §2

[5] = tested on: breast cancer cell lines; assay: Proliferation of breast cancer cell lines (panel, line not specified); format: cell-based, human; details: cell line not specified or several lines
Protocol: as §1, §2

[6] = inhibition of cell proliferation, read-out: IC50 MCF7
[7] = Homo sapiens, MCF7, inhibition of cell proliferation, read-out: IC50 MCF7
[8] = Homo sapiens, DT-22, inhibition of cell proliferation
[9] = Homo sapiens, MDA-MB-231, inhibition of cell proliferation, read-out: IC50 MDA-MB-231
[10] = Homo sapiens, MCF7, read-out: IC50 MCF7
[11] = sc, 60 mg/kg, PK s.c. AUC0-48, mice, 60 mg/kg s.c.
[12] = Homo sapiens, MDA-MB-231, read-out: IC50 MDA-MB-231

Molecule: 6-(4-((Z)-((5S,7S)-adamantan-2-ylidene)(4-chlorophenyl)methyl)phenoxy)-N,N-diethylhexan-1-amine [NB-54]
IC50 [1, 6]: 4 µM
IC50 ([2]; inhibition of cell proliferation, read-out: IC50 MDA-MB-231): 4 µM

Molecule: c1cc(C(c2ccc(OCCCCCCN3CCCCC3)cc2)=C2[C@H]3C[C@@H]4C[C@@H](C[C@H]2C4)C3)ccc1OCCCCCCN1CCCCC1 [NB-70, 1,1′-((((((5r,7r)-Adamantan-2-ylidene)methylene)bis(4,1-phenylene))bis(oxy))bis(hexane-6,1-diyl))dipiperidine]
IC50 [1, 10]: 0.7 µM
half-life ([3]; po, 60 mg/kg): 90.9 h
AUC(0-t) ([3]; po, 60 mg/kg, PK p.o. AUC0-48, mice, 60 mg/kg p.o.): 6 µM·h
AUC(0-t) [3, 11]: 10.2 µM·h
IC50 [2, 12]: 0.9 µM

Molecule: C[N+]1(CCCCCCOc2ccc(C(c3ccc(OCCCCCC[N+]4(C)CCCCC4)cc3)=C3C4C[C@H]5C[C@@H](C4)C[C@H]3C5)cc2)CCCCC1 [NB-71, 1,1′-((((((5r,7r)-adamantan-2-ylidene)methylene)bis(4,1-phenylene))bis(oxy))bis(hexane-6,1-diyl))bis(1-methylpiperidin-1-ium) diodide]
IC50 [1, 10]: 1.1 µM
half-life ([3]; sc): 25 to 40 h
half-life ([3]; sc, 60 mg/kg): 119 h
AUC(0-t) [3, 11]: 364 µM·h
Blood levels after oral administration ([3]; mice, oral, doses of FIGS. 6A-6B): very low levels
Blood levels after s.c. injection ([3]; mice, s.c., doses of FIGS. 6A-6B): very high blood levels
IC50 [2, 12]: 0.5 µM
IC50 [4, 8]: 0.8 µM

Molecule: c1cc(C(=C2C3CC4CC(C3)CC2C4)c2ccc(OCCCCCCCCN3CCCCCC3)cc2)ccc1OCCCCCCCCN1CCCCCC1 [NB-80, 1,1′-((((((5r,7r)-adamantan-2-ylidene)methylene)bis(4,1-phenylene))bis(oxy))bis(octane-8,1-diyl))bis(azepane)]
IC50 [1, 7]: 2.7 µM
IC50 [4, 8]: 3.4 µM

Molecule: C[N+]1(CCCCCCCCOc2ccc(C(=C3C4CC5CC(C4)CC3C5)c3ccc(OCCCCCCCC[N+]4(C)CCCCCC4)cc3)cc2)CCCCCC1.[I-].[I-] [NB-81, 1,1′-((((((5r,7r)-adamantan-2-ylidene)methylene)bis(4,1-phenylene))bis(oxy))bis(octane-8,1-diyl))bis(1-methylazepan-1-ium) diiodide]
IC50 [1, 7]: 0.6 µM
Outcome of animals in PK study ([3]; mice, 40 mg/kg s.c adm.): Died at 40 mg/kg s.c adm.
IC50 [4, 8]: 1.6 µM

Molecule: C[N+]1(CCCCOc2ccc(C(=C3C4CC5CC(C4)CC3C5)c3ccc(OCCCC[N+]4(C)CCCCC4)cc3)cc2)CCCCC1 [NB-86, 1-(4-(4-((E)-((5R,7R)-adamantan-2-ylidene)(4-(4-(1-metheyliumylpiperidin-1-ium-1-yl)butoxy)phenyl)methyl)phenoxy)butyl)-1-methylpiperidin-1-ium diiodide]
IC50 [1, 7]: 1.4 µM
IC50 [2, 9]: 1.1 µM
IC50 [4, 8]: 1.9 µM

Molecule: C[N+]1(CCCCOc2ccc(C(=C3C4CC5CC(C4)CC3C5)c3ccc(OCCCC[N+]4(C)CCCCCC4)cc3)cc2)CCCCCC1 [NB-87, 1,1′-((((((5r,7r)-adamantan-2-ylidene)methylene)bis(4,1-phenylene))bis(oxy))bis(butane-4,1-diyl))bis(1-methylazepan-1-ium) diiodide]
IC50 [1, 7]: 1.7 µM
IC50 [2, 9]: 0.9 µM
IC50 [4, 8]: 1.5 µM

More lines, main results first:

IC50 [1, 7]: 1.5 to 2 µM
IC50 [1, 6]: 1.5 µM
half-life ([3]; po, 40 mg/kg): 15.1 h
AUC(0-t) ([3]; po, 40 mg/kg, PK p.o. AUC0-48, mice, 40 mg/kg p.o.): 5.6 µM·h
half-life ([3]; sc, 40 mg/kg): 22.5 h
AUC(0-t) ([3]; sc, 40 mg/kg, PK s.c. AUC0-48, mice, 40 mg/kg s.c.): 13.3 µM·h
Molecule: CCN(CC)CCCCCCOc1ccc(C(=C2C3CC4CC(C3)CC2C4)c2ccc(O)cc2)cc1 [NB-41, 4-((E)-((5R,7R)-adamantan-2-ylidene)(4-((6-(diethylamino)hexyl)oxy)phenyl)methyl)phenol]
IC50 [4, 8]: 1.5 to 2 µM
IC50 ([4]; inhibition of cell proliferation, read-out: IC50 DT-22): 2 µM

IC50 [1, 7]: 3.5 µM
IC50 [2, 9]: < 5 µM
Molecule: CCN(CC)CCOCCOCCOc1ccc(C(=C2C3CC4CC(C3)CC2C4)c2ccc(OCCOCCOCCN(CC)CC)cc2)cc1 [NB-53, 2,2′-(((((((((5r,7r)-adamantan-2-ylidene)methylene)bis(4,1-phenylene))bis(oxy))bis(ethane-2,1-diyl))bis(oxy))bis(ethane-2,1-diyl))bis(oxy))bis(N,N-diethylethan-1-amine)]

IC50 [1, 7]: 0.8 µM
IC50 for inhibition of proliferation of breast cancer cell lines [5]: submicromolar
PK p.o. AUC0-48 ([3]; mice, 60 mg/kg p.o.): too low to measure
PK s.c. AUC0-48 ([3]; mice, 60 mg/kg s.c.): 6.1 µM·h
PK s.c. t1/2 ([3]; mice, 60 mg/kg s.c.): 45.6 h
Molecule: CN1CCN(CCCCCCOc2ccc(C(=C3C4CC5CC(C4)CC3C5)c3ccc(OCCCCCCN4CCN(C)CC4)cc3)cc2)CC1 [NB-66, 4,4′-((((((5r,7r)-adamantan-2-ylidene)methylene)bis(4,1-phenylene))bis(oxy))bis(hexane-6,1-diyl))bis(1-methylpiperazine)]

IC50 [1, 7]: 1.7 µM
IC50 [2, 9]: 0.7 µM
Molecule: C[N+]1(CCCCCOc2ccc(C(=C3C4CC5CC(C4)CC3C5)c3ccc(OCCCCC[N+]4(C)CCCCC4)cc3)cc2)CCCCC1 [NB-88, 1,1′-((((((5r,7r)-adamantan-2-ylidene)methylene)bis(4,1-phenylene))bis(oxy))bis(pentane-5,1-diyl))bis(1-methylpiperidin-1-ium) diiodide]
IC50 [4, 8]: 1.2 µM

IC50 [1, 7]: 0.6 µM
IC50 [1, 6]: 0.7 µM
IC50 [2, 9]: 0.5 µM
Molecule: C[N+]1(CCCCCOc2ccc(C(=C3C4CC5CC(C4)CC3C5)c3ccc(OCCCCC[N+]4(C)CCCCCC4)cc3)cc2)CCCCCC1 [NB-89, 1,1′-((((((5r,7r)-adamantan-2-ylidene)methylene)bis(4,1-phenylene))bis(oxy))bis(pentane-5,1-diyl))bis(1-methylazepan-1-ium) diiodide]
IC50 [4, 8]: 1.1 µM

IC50 [1, 7]: 1.1 µM
Molecule: CC[N+](C)(CCO)CCCCCCOc1ccc(C(=C2C3CC4CC(C3)CC2C4)c2ccc(OCCCCCC[N+](C)(CC)CCO)cc2)cc1 (centres unmarked) [NB-134, 6,6′-(((((5r,7r)-adamantan-2-ylidene)methylene)bis(4,1-phenylene))bis(oxy))bis(N-ethyl-N-(2-hydroxyethyl)-N-methylhexan-1-aminium) diiodide]
IC50 [4, 8]: 1.5 µM
